Numbers after ± are expanded uncertainties.
How the values were obtained:
[1] = refractive index (Na D-line) (dimensionless); conditions: 298.15 K; 101.33 kPa; Liquid; Standard Abbe refractometry
[2] = Liquid; for vapor or sublimation pressure: Twin ebulliometer

Compound | refractive index [1] | vapor or sublimation pressure ([2]; 292.33 K) | vapor or sublimation pressure ([2]; 303.83 K) | vapor or sublimation pressure ([2]; 311.14 K) | vapor or sublimation pressure ([2]; 317.9 K) | vapor or sublimation pressure ([2]; 323.09 K) | vapor or sublimation pressure ([2]; 326.8 K) | vapor or sublimation pressure ([2]; 330.56 K) | vapor or sublimation pressure ([2]; 333.94 K) | vapor or sublimation pressure ([2]; 337.18 K) | vapor or sublimation pressure ([2]; 339.97 K) | vapor or sublimation pressure ([2]; 342.3 K) | mass density ([2]; 298.15 K, 101.33 kPa)
CCO [ethanol] | 1.3596 ± 0.0004 | 5.59 ± 0.15 kPa | 10.86 ± 0.15 kPa | 16.15 ± 0.16 kPa | 22.84 ± 0.17 kPa | 29.41 ± 0.18 kPa | 35.11 ± 0.19 kPa | 41.76 ± 0.21 kPa | 48.61 ± 0.22 kPa | 56.06 ± 0.24 kPa | 63.2 ± 0.26 kPa | 69.73 ± 0.27 kPa | 
CO [methanol] | 1.3266 ± 0.0004 |  |  |  |  |  |  |  |  |  |  |  | 786.59 ± 0.62 kg/m3

From the NIST ThermoML archive (doi:10.1021/je060163o)
